The values that follow come from ChEMBL document CHEMBL1955839, “Synthesis and structure-activity relationship of 4-amino-2-phenylpyrimidine derivatives as a series of novel GPR119 agonists” (Bioorg Med Chem, 2012).

A value given as a limit tells only on which side of the number the result lay.

For data set [1], the target named is T1, Glucose-dependent insulinotropic receptor (Homo sapiens) (UniProt Q8TDV5).
T1 sequence (whole entry): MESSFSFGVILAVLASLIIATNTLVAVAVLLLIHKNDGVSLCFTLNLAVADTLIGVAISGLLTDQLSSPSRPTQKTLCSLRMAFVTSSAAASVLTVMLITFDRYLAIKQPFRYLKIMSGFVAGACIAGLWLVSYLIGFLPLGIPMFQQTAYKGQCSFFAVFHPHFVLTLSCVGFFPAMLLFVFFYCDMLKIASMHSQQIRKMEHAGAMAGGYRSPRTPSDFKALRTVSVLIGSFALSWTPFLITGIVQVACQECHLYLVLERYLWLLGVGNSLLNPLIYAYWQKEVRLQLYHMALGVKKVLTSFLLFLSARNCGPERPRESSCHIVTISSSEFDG
In words: Agonist activity at human GPR119 expressed in HEK293 cells co-transfected with pCRE-Luc assessed as induction in cAMP level after 6 hrs by luciferase reporter gene assay relative to 10 uM of 2-{[2-(4-Bromophenyl)-6-methylpyrimidin-4-yl]amino}ethanol. Type of data set: functional, cell-based.

For data set [2], the target named is T1, Glucose-dependent insulinotropic receptor (Homo sapiens). Put plainly: Agonist activity at human GPR119 expressed in HEK293 cells co-transfected with pCRE-Luc assessed as induction in cAMP level at 10 uM after 6 hrs by luciferase reporter gene assay relative to 10 uM of 2-{[2-(4-Bromophenyl)-6-methylpyrimidin-4-yl]amino}ethanol. It counts as functional, cell-based.

Data set [3] relates to Mus musculus. In words: Antihyperglycemic activity in ICR mouse assessed as blood glucose lowering ratio at 10 mg/kg, po administered 10 mins prior glucose challenge measured after 30 mins by oral glucose tolerance test. Type of data set: functional.
Another data set has as its target T2, Cytochrome P450 1A2 (Homo sapiens, UniProt P05177).
T2 sequence (P05177 whole entry): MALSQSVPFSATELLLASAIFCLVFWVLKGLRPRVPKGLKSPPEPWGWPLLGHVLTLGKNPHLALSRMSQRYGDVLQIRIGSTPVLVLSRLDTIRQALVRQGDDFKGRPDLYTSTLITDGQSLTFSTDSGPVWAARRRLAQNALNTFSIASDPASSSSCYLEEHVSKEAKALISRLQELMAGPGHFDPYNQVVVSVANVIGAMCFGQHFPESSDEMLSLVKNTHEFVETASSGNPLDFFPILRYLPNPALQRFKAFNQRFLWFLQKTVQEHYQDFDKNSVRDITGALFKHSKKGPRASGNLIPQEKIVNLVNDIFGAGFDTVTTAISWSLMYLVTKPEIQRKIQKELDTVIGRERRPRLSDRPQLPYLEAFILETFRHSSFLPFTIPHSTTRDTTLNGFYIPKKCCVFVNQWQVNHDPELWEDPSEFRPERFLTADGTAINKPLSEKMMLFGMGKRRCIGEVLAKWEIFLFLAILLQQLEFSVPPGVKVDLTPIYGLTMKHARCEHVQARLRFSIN
In words: Inhibition of CYP1A2. It counts as ADME.

Data set [4] has as its system Mus musculus. In words: Antihyperglycemic activity in ICR mouse assessed as blood glucose lowering ratio at 30 mg/kg, po administered 10 mins prior glucose challenge measured after 30 mins by oral glucose tolerance test. Type of data set: functional.
Data set [5] in a line: Tmax in rat at 3 mg/kg, po. Type of data set: ADME, organism-based. Set-up: dose 3 mg/kg, route oral. Particulars: in vivo.
The nature of data set [6]: Half life in rat at 1 mg/kg, iv. It counts as ADME, organism-based. Conditions: in vivo. The arrangement: dose 1 mg/kg, route intravenous.
The nature of data set [7]: Volume of distribution at steady state in rat at 1 mg/kg, iv. It counts as ADME, organism-based. Set-up: dose 1 mg/kg, route intravenous. Particulars: in vivo, read-out: Vdss.
The nature of data set [8]: Total clearance in rat at 1 mg/kg, iv. Conditions: in vivo. Type of data set: ADME, organism-based. The arrangement: dose 1 mg/kg, route intravenous.
Data set [9] can be described thus: Oral bioavailability in rat at 3 mg/kg. Type of data set: ADME, organism-based. Conditions: in vivo.

As to `Cc1cc(NCC(C)C)nc(-c2ccc(Br)cc2)n1`, the EC in data set [1] turned out to be 0.91 µM. Further, the Intrinsic activity in [2] is 322%. In addition, the Activity in the data set with Mus musculus [3] was 24%. On Cytochrome P450 1A2, this compound came in with an IC50 of less than 91 nM.
Regarding `Cc1cc(NCc2cccnc2)nc(-c2ccc(Br)cc2)n1`, the EC in data set [1] worked out at 1.3 µM. Further, the Intrinsic activity in data set [2] is 294%. The compound also returned an IC50 against Cytochrome P450 1A2 of less than 46 nM.
As for `Cc1cc(NCCO)nc(-c2ccc(Cl)cc2)n1`, the EC in data set [1] came out at 12 µM. For the same compound, in [2], the Intrinsic activity worked out at 48%.
Taken in the same sequence, the figures for `Cc1cc(NCC(C)O)nc(-c2ccc(Br)cc2)n1` (stereo unspecified) were 3.6 µM and 209%.
With `Cc1cc(NCCO)nc(-c2ccc(Br)cc2)n1`, the Activity in the data set with Mus musculus [4] was 17%. At Cytochrome P450 1A2, half-maximal inhibition (IC50) required 660 nM.
Turning to `Cc1cc(NCCc2ccc[n+]([O-])c2)nc(-c2ccc(Br)cc2)n1`, the Activity in the data set on Mus musculus [3] is listed as 38%. The compound further had an IC50 on Cytochrome P450 1A2 of 970 nM. Further, the time to peak (Tmax) in data set [5] is 15 min. Moreover, the half-life in [6] is 72 min. The Vd in data set [7] was 2 L/kg. Also, in [8], the clearance worked out at 20.1 mL/min/kg. Further, in data set [9], the bioavailability was 56%.
On to `Cc1cc(NC(C)CO)nc(-c2ccc(Br)cc2)n1` (stereo unspecified), for which the EC in [1] worked out at 13 µM. Besides, in data set [2], the Intrinsic activity was 82%.
Taken in the same sequence, the figures for `Cc1cc(NCCO)nc(-c2ccc(I)cc2)n1` were 19 µM and 66%.
On to `COCCNc1cc(C)nc(-c2ccc(Br)cc2)n1`, for which, in data set [1], the EC stood at 1.8 µM. For the same compound, the Intrinsic activity in [2] was found to be 209%. Besides, the Activity in the data set with Mus musculus [3] worked out at 13%. Further, at Cytochrome P450 1A2, the IC50 was less than 91 nM.
As to `OCCNc1cc(C(F)F)nc(-c2ccc(Br)cc2)n1`, the EC in data set [1] was found to be 8.2 µM. In data set [2], the Intrinsic activity was 195%.
`Cc1cc(NCCc2cccnc2)nc(-c2ccc(Br)cc2)n1`: the EC in [1] was 0.73 µM. Further, in [2], the Intrinsic activity amounted to 772%. Besides, the Activity with Mus musculus [3] turned out to be 17%. This compound also came in with an IC50 against Cytochrome P450 1A2 of less than 91 nM.
With `CCc1cc(NCCO)nc(-c2ccc(Br)cc2)n1`, the EC in [1] turned out to be 5.9 µM. The Intrinsic activity in data set [2] came out at 146%.
